Species on record: Rattus norvegicus
Assay: Open TG-GATES - Regimen: Single
Format: toxicity, organism-based, Sprague-Dawley
Parameters: regimen Single, gender Male, age 6 weeks
Conditions: in vivo, po, 300 mg/kg, route gavage, dose level Low; for APTT / Bas / Eos / Fbg / Hb / Ht / Lym / MCH / MCHC / MCV / Mono / Neu / PT / Plat / RBC / Ret / WBC: tissue Blood; for KIDNEY_L / KIDNEY_R / KIDNEY_TOTAL: tissue Kidney; for LIVER: tissue Liver; for A/G / ALP / ALT / AST / BUN / CRE / Ca / Cl / DBIL / GLC / IP / K / LDH / Na / PL / RALB / TBIL / TC / TG / TP / gamma-GTP: tissue Plasma

Clc1c(Cl)c(Cl)c(Cl)c(Cl)c1Cl [PERCHLOROBENZENE] showed a TERMINAL_BW (3 h) of 219 g, an APTT (3 h) of 18.9 s and a Bas (3 h) of 0%. It also gave an Eos (3 h) of 1%, a Fbg (3 h) of 225 mg/dL and a Hb (3 h) of 13.3 g/dL. The Ht (3 h) was 37.8%, the Lym (3 h) was 72.2% and the MCH (3 h) was 21.8 pg. It also gave an MCHC (3 h) of 35.2%, an MCV (3 h) of 61.7 fL and a Mono (3 h) of 2.8%. The Neu (3 h) was 23.2%, the PT (3 h) was 11.9 s and the Plat (3 h) was 121.8 x10_4/uL. For the same compound, the RBC (3 h) was 613.6 x10_4/ul, the Ret (3 h) was 7.1% and the WBC (3 h) was 86.9 x10_2/uL. For the same compound, the KIDNEY_L (3 h) was 1 g, the KIDNEY_R (3 h) was 1 g and the KIDNEY_TOTAL (3 h) was 2 g. The LIVER (3 h) was 9.9 g, the A/G (3 h) was 1.7 and the ALP (3 h) was 1023.6 IU/L. For the same compound, the ALT (3 h) was 42.4 IU/L, the AST (3 h) was 87.2 IU/L and the BUN (3 h) was 10.2 mg/dL. The CRE (3 h) was 0.4 mg/dL, the Ca (3 h) was 10.7 mg/dL and the Cl (3 h) was 103 meq/L. For the same compound, the DBIL (3 h) was 0.062 mg/dL, the GLC (3 h) was 195.8 mg/dL and the IP (3 h) was 9.2 mg/dL. The K (3 h) was 3.9 meq/L, the LDH (3 h) was 211 IU/L and the Na (3 h) was 140.2 meq/L. The PL (3 h) was 145.8 mg/dL, the RALB (3 h) was 3.4 g/dL and the TBIL (3 h) was 0.1 mg/dL. For the same compound, the TC (3 h) was 72.6 mg/dL, the TG (3 h) was 109 mg/dL and the TP (3 h) was 5.4 g/dL. The gamma-GTP (3 h) was 1 IU/L, the TERMINAL_BW (6 h) was 218.5 g and the APTT (6 h) was 17.9 s. It also gave a Bas (6 h) of 0.2%, an Eos (6 h) of 1% and a Fbg (6 h) of 233.6 mg/dL. For the same compound, the Hb (6 h) was 13.6 g/dL, the Ht (6 h) was 38.5% and the Lym (6 h) was 77.2%. It also gave an MCH (6 h) of 21.9 pg, an MCHC (6 h) of 35.3% and an MCV (6 h) of 62 fL. It also gave a Mono (6 h) of 3.6%, a Neu (6 h) of 17.2% and a PT (6 h) of 11.9 s. It also gave a Plat (6 h) of 123.5 x10_4/uL, an RBC (6 h) of 623.6 x10_4/ul and a Ret (6 h) of 7%. It also gave a WBC (6 h) of 100 x10_2/uL, a KIDNEY_L (6 h) of 1 g and a KIDNEY_R (6 h) of 1 g. The KIDNEY_TOTAL (6 h) was 1.9 g, the LIVER (6 h) was 8.9 g and the A/G (6 h) was 1.6. It also gave an ALP (6 h) of 1089 IU/L, an ALT (6 h) of 31.4 IU/L and an AST (6 h) of 73.2 IU/L. It also gave a BUN (6 h) of 8.4 mg/dL, a CRE (6 h) of 0.4 mg/dL and a Ca (6 h) of 10.5 mg/dL. The Cl (6 h) was 102.8 meq/L, the DBIL (6 h) was 0.072 mg/dL and the GLC (6 h) was 190.6 mg/dL. It also gave an IP (6 h) of 9.4 mg/dL, a K (6 h) of 4.1 meq/L and an LDH (6 h) of 224.4 IU/L. The Na (6 h) was 140.8 meq/L, the PL (6 h) was 130.6 mg/dL and the RALB (6 h) was 3.4 g/dL. It also gave a TBIL (6 h) of 0.1 mg/dL, a TC (6 h) of 70.2 mg/dL and a TG (6 h) of 56 mg/dL. The TP (6 h) was 5.5 g/dL, the gamma-GTP (6 h) was 1 IU/L and the TERMINAL_BW (9 h) was 213.9 g. It also gave an APTT (9 h) of 18.1 s, a Bas (9 h) of 0% and an Eos (9 h) of 0.8%. The Fbg (9 h) was 228 mg/dL, the Hb (9 h) was 13.9 g/dL and the Ht (9 h) was 39.4%. It also gave a Lym (9 h) of 78.6%, an MCH (9 h) of 21.6 pg and an MCHC (9 h) of 35.2%. For the same compound, the MCV (9 h) was 61.5 fL, the Mono (9 h) was 3% and the Neu (9 h) was 16%. For the same compound, the PT (9 h) was 12.5 s, the Plat (9 h) was 125.7 x10_4/uL and the RBC (9 h) was 641.2 x10_4/ul. The Ret (9 h) was 6.4%, the WBC (9 h) was 85.4 x10_2/uL and the KIDNEY_L (9 h) was 1 g. For the same compound, the KIDNEY_R (9 h) was 0.9 g, the KIDNEY_TOTAL (9 h) was 1.9 g and the LIVER (9 h) was 8.7 g. For the same compound, the A/G (9 h) was 1.6, the ALP (9 h) was 857 IU/L and the ALT (9 h) was 30.6 IU/L. For the same compound, the AST (9 h) was 75.4 IU/L, the BUN (9 h) was 9.8 mg/dL and the CRE (9 h) was 0.4 mg/dL. It also gave a Ca (9 h) of 10.5 mg/dL, a Cl (9 h) of 104.2 meq/L and a DBIL (9 h) of 0.066 mg/dL. For the same compound, the GLC (9 h) was 202.8 mg/dL, the IP (9 h) was 10.2 mg/dL and the K (9 h) was 3.8 meq/L. For the same compound, the LDH (9 h) was 222 IU/L, the Na (9 h) was 142.6 meq/L and the PL (9 h) was 119.8 mg/dL. The RALB (9 h) was 3.4 g/dL, the TBIL (9 h) was 0.1 mg/dL and the TC (9 h) was 63.6 mg/dL. It also gave a TG (9 h) of 44.8 mg/dL, a TP (9 h) of 5.5 g/dL and a gamma-GTP (9 h) of 1.2 IU/L. The TERMINAL_BW (24 h) was 230 g, the APTT (24 h) was 17.8 s and the Bas (24 h) was 0.8%. For the same compound, the Eos (24 h) was 1%, the Fbg (24 h) was 225 mg/dL and the Hb (24 h) was 13.6 g/dL. For the same compound, the Ht (24 h) was 38.8%, the Lym (24 h) was 78% and the MCH (24 h) was 21.9 pg. The MCHC (24 h) was 35.1%, the MCV (24 h) was 62.4 fL and the Mono (24 h) was 3%. For the same compound, the Neu (24 h) was 17.2%, the PT (24 h) was 11.8 s and the Plat (24 h) was 114.2 x10_4/uL. The RBC (24 h) was 621 x10_4/ul, the Ret (24 h) was 6.4% and the WBC (24 h) was 81.3 x10_2/uL. It also gave a KIDNEY_L (24 h) of 1 g, a KIDNEY_R (24 h) of 1 g and a KIDNEY_TOTAL (24 h) of 2.1 g. The LIVER (24 h) was 11 g, the A/G (24 h) was 1.6 and the ALP (24 h) was 883.2 IU/L. It also gave an ALT (24 h) of 32 IU/L, an AST (24 h) of 61.8 IU/L and a BUN (24 h) of 13.2 mg/dL. The CRE (24 h) was 0.4 mg/dL, the Ca (24 h) was 10.9 mg/dL and the Cl (24 h) was 103.2 meq/L. The DBIL (24 h) was 0.058 mg/dL, the GLC (24 h) was 202.4 mg/dL and the IP (24 h) was 7.1 mg/dL. The K (24 h) was 3.9 meq/L, the LDH (24 h) was 196 IU/L and the Na (24 h) was 141.6 meq/L. It also gave a PL (24 h) of 143.8 mg/dL, an RALB (24 h) of 3.3 g/dL and a TBIL (24 h) of 0.1 mg/dL. It also gave a TC (24 h) of 77.6 mg/dL, a TG (24 h) of 118.8 mg/dL and a TP (24 h) of 5.5 g/dL. It also gave a gamma-GTP (24 h) of 1.2 IU/L.

From ChEMBL document CHEMBL3885861, “Open TG-GATES”
